Measured values from PubChem BioAssay (NCI).
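48-hour exposure; five concentrations; linearly interpolated endpoints. The concentration for 50% growth inhibition is given as GI50. TGI is the concentration that stops growth completely.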

Columns and labels:
Assay in all cases: growth of human tumour cells (NCI), 48 h
KM12 colon = tested on: KM12 colon
SK-OV-3 ovarian = tested on: SK-OV-3 ovarian
SF-295 CNS = tested on: SF-295 CNS
SN12C renal = tested on: SN12C renal
SK-MEL-2 melanoma = tested on: SK-MEL-2 melanoma
HCT-116 colon = tested on: HCT-116 colon
NCI-H23 lung = tested on: NCI-H23 lung
NCI-H522 lung = tested on: NCI-H522 lung
SNB-19 CNS = tested on: SNB-19 CNS
786-0 renal = tested on: 786-0 renal

NC(N)=NC(N)=NCCCc1ccco1
GI50 (KM12 colon): 109000 nM
TGI (KM12 colon): > 500 µM
GI50 (SK-OV-3 ovarian): 142 µM
TGI (SK-OV-3 ovarian): > 500 µM
GI50 (SF-295 CNS): 163 µM
TGI (SF-295 CNS): > 500 µM
GI50 (SN12C renal): 87200 nM
TGI (SN12C renal): 253 µM
GI50 (SK-MEL-2 melanoma): 47500 nM
TGI (SK-MEL-2 melanoma): 115 µM
GI50 (HCT-116 colon): 90200 nM
TGI (HCT-116 colon): 335 µM
GI50 (NCI-H23 lung): 463000 nM
TGI (NCI-H23 lung): > 500 µM
GI50 (NCI-H522 lung): > 500000 nM
TGI (NCI-H522 lung): > 500 µM
GI50 (SNB-19 CNS): > 500 µM
TGI (SNB-19 CNS): > 500 µM
GI50 (786-0 renal): 83500 nM
TGI (786-0 renal): 265 µM

Cc1ccc2c(c1)C(=O)c1c-2c(OCCCN(C)C)nc2ccccc12
GI50 (KM12 colon): 1220 nM
TGI (KM12 colon): 2.72 µM
GI50 (SK-OV-3 ovarian): 4.47 µM
TGI (SK-OV-3 ovarian): 17.4 µM
GI50 (SF-295 CNS): 2.87 µM
TGI (SF-295 CNS): 14.1 µM
GI50 (SN12C renal): 2670 nM
TGI (SN12C renal): 17.7 µM
GI50 (SK-MEL-2 melanoma): 11700 nM
TGI (SK-MEL-2 melanoma): 27.4 µM
GI50 (HCT-116 colon): 718 nM
TGI (HCT-116 colon): 2.12 µM
GI50 (NCI-H23 lung): 1660 nM
TGI (NCI-H23 lung): 4.48 µM
GI50 (NCI-H522 lung): 1350 nM
TGI (NCI-H522 lung): 3.72 µM
GI50 (SNB-19 CNS): 2.81 µM
TGI (SNB-19 CNS): 15.1 µM
GI50 (786-0 renal): 2980 nM
TGI (786-0 renal): 18.1 µM

N#C/C(=N\Nc1ccccc1)C(=O)Nc1cc(-c2ccccc2)nn1-c1ccccc1
GI50 (KM12 colon): 2970 nM
TGI (KM12 colon): > 100 µM
GI50 (SF-295 CNS): 3.14 µM
TGI (SF-295 CNS): > 100 µM
GI50 (SN12C renal): 2740 nM
TGI (SN12C renal): > 100 µM
GI50 (SK-MEL-2 melanoma): 2190 nM
TGI (SK-MEL-2 melanoma): 9.94 µM
GI50 (HCT-116 colon): 2140 nM
TGI (HCT-116 colon): > 100 µM
GI50 (NCI-H23 lung): 2730 nM
TGI (NCI-H23 lung): 60.5 µM
GI50 (NCI-H522 lung): 2060 nM
TGI (NCI-H522 lung): 12.6 µM
GI50 (SNB-19 CNS): 3.6 µM
TGI (SNB-19 CNS): > 100 µM
GI50 (786-0 renal): 3040 nM
TGI (786-0 renal): 16.3 µM

C[C@]12CC[C@H]3[C@@H](CC4SC(N)=NC45C/C(=N/NC(N)=O)CC[C@]35C)[C@@H]1CCC2=O (stereo partly drawn)
GI50 (KM12 colon): 2010 nM
TGI (KM12 colon): 4.02 µM
GI50 (SK-OV-3 ovarian): 6.21 µM
TGI (SK-OV-3 ovarian): 22.3 µM
GI50 (SF-295 CNS): 1.61 µM
TGI (SF-295 CNS): 3.03 µM
GI50 (SN12C renal): 1890 nM
TGI (SN12C renal): 3.45 µM
GI50 (SK-MEL-2 melanoma): 1980 nM
TGI (SK-MEL-2 melanoma): 4.58 µM
GI50 (HCT-116 colon): 2090 nM
TGI (HCT-116 colon): 4.35 µM
GI50 (NCI-H23 lung): 1780 nM
TGI (NCI-H23 lung): 3.32 µM
GI50 (NCI-H522 lung): 1930 nM
TGI (NCI-H522 lung): 4.06 µM
GI50 (SNB-19 CNS): 1.87 µM
TGI (SNB-19 CNS): 3.62 µM
GI50 (786-0 renal): 1390 nM
TGI (786-0 renal): 2.82 µM

O=C(CI)Nc1ccc(O)c2ccccc12
GI50 (KM12 colon): 1900 nM
TGI (KM12 colon): 3.69 µM
GI50 (SK-OV-3 ovarian): 4.27 µM
TGI (SK-OV-3 ovarian): 14.8 µM
GI50 (SF-295 CNS): 3.38 µM
TGI (SF-295 CNS): 11.3 µM
GI50 (SN12C renal): 1610 nM
TGI (SN12C renal): 3.3 µM
GI50 (SK-MEL-2 melanoma): 2930 nM
TGI (SK-MEL-2 melanoma): 9.22 µM
GI50 (HCT-116 colon): 481 nM
TGI (HCT-116 colon): 1.16 µM
GI50 (NCI-H23 lung): 1670 nM
TGI (NCI-H23 lung): 3.69 µM
GI50 (NCI-H522 lung): 142 nM
TGI (NCI-H522 lung): 0.297 µM
GI50 (SNB-19 CNS): 3.39 µM
TGI (SNB-19 CNS): 11.7 µM
GI50 (786-0 renal): 1730 nM
TGI (786-0 renal): 3.27 µM

C#CC1(O)CCC2[C@@H]3CCc4cc(Oc5nc(F)nc(-c6c7ccccc7c(SCC)n6CCC)n5)ccc4C3CC[C@@]21C (stereo partly drawn)
TGI (KM12 colon): > 100 µM
TGI (SK-OV-3 ovarian): > 100 µM
TGI (SF-295 CNS): > 100 µM
TGI (SK-MEL-2 melanoma): > 100 µM
TGI (HCT-116 colon): > 100 µM
TGI (NCI-H23 lung): 63.9 µM
TGI (786-0 renal): > 100 µM

Cc1ccc(S(=O)(=O)OC(COC(=O)c2ccccc2)C(OS(=O)(=O)c2ccc(C)cc2)C(OS(=O)(=O)c2ccc(C)cc2)C(COC(=O)c2ccccc2)OS(=O)(=O)c2ccc(C)cc2)cc1 (stereo not drawn)
TGI (KM12 colon): > 100 µM
TGI (SK-OV-3 ovarian): > 10 µM
TGI (SF-295 CNS): > 100 µM
TGI (SN12C renal): > 100 µM
TGI (SK-MEL-2 melanoma): > 100 µM
TGI (HCT-116 colon): > 100 µM
TGI (NCI-H23 lung): > 100 µM
TGI (NCI-H522 lung): > 100 µM
TGI (SNB-19 CNS): > 100 µM
TGI (786-0 renal): > 100 µM

COC(=O)[C@@H](C)[C@H]1CC[C@@](C)(CCC2=C(C)CC3C=C(C)CCC3C2(C)C)OO1 (stereo partly drawn)
TGI (KM12 colon): 2.9 µM
TGI (SK-OV-3 ovarian): 3.87 µM
TGI (SF-295 CNS): 3.2 µM
TGI (SN12C renal): 2.36 µM
TGI (SK-MEL-2 melanoma): 3.32 µM
TGI (HCT-116 colon): 3.81 µM
TGI (NCI-H23 lung): 3.49 µM
TGI (NCI-H522 lung): 0.331 µM
TGI (SNB-19 CNS): 3.16 µM
TGI (786-0 renal): 0.263 µM

C1CN(P2(N3CC3)=NP(N3CC3)(N3CC3)=NP(N3CC3)(N3CC3)=N2)CCO1 (stereo not drawn)
TGI (KM12 colon): > 100 µM
TGI (SK-OV-3 ovarian): > 100 µM
TGI (SF-295 CNS): > 100 µM
TGI (SN12C renal): > 100 µM
TGI (SK-MEL-2 melanoma): > 100 µM
TGI (HCT-116 colon): > 100 µM
TGI (NCI-H23 lung): > 100 µM
TGI (NCI-H522 lung): > 100 µM
TGI (SNB-19 CNS): > 100 µM
TGI (786-0 renal): > 100 µM

C=CCC1(C(=O)OC(C)(C)C)C(OC)=C(C(=O)OC(C)(C)C)C2C1C(C(=O)OC(C)(C)C)=C(OC)C2(CC=C)C(=O)OC(C)(C)C (stereo not drawn)
TGI (KM12 colon): > 100 µM
TGI (SK-OV-3 ovarian): > 100 µM
TGI (SF-295 CNS): > 100 µM
TGI (SN12C renal): > 100 µM
TGI (SK-MEL-2 melanoma): > 100 µM
TGI (NCI-H23 lung): > 100 µM
TGI (NCI-H522 lung): > 100 µM
TGI (SNB-19 CNS): > 100 µM
TGI (786-0 renal): > 100 µM

COc1ccc(/C(C#N)=C/c2cc(OC)c(OC)c(OC)c2)cc1
GI50 (KM12 colon): 12700 nM
TGI (KM12 colon): > 100 µM
GI50 (SK-OV-3 ovarian): 35.8 µM
TGI (SK-OV-3 ovarian): > 100 µM
GI50 (SF-295 CNS): 15 µM
TGI (SF-295 CNS): 41.9 µM
GI50 (SN12C renal): 27200 nM
TGI (SN12C renal): > 100 µM
GI50 (SK-MEL-2 melanoma): 21900 nM
TGI (SK-MEL-2 melanoma): 82.2 µM
GI50 (HCT-116 colon): 22900 nM
TGI (HCT-116 colon): > 100 µM
GI50 (NCI-H23 lung): 20100 nM
TGI (NCI-H23 lung): 88.4 µM
GI50 (NCI-H522 lung): 15700 nM
TGI (NCI-H522 lung): 56.3 µM
GI50 (SNB-19 CNS): 28 µM
TGI (SNB-19 CNS): > 100 µM
GI50 (786-0 renal): 41300 nM
TGI (786-0 renal): > 100 µM

COC(=O)C1CC(OC(C)=O)C=C2C(=O)CCC21 (stereo not drawn)
TGI (KM12 colon): 31.6 µM
TGI (SK-OV-3 ovarian): 69.9 µM
TGI (SN12C renal): 41.9 µM
TGI (SK-MEL-2 melanoma): 79.9 µM
TGI (HCT-116 colon): 29.8 µM
TGI (NCI-H522 lung): 3.75 µM
TGI (SNB-19 CNS): 60.3 µM
TGI (786-0 renal): 51 µM

CC(C)C(=O)c1c(C(F)(F)F)n([O-])c2cc(F)c(F)cc2[n+]1=O
GI50 (KM12 colon): 1830 nM
TGI (KM12 colon): 4.69 µM
GI50 (SK-OV-3 ovarian): 1.04 µM
TGI (SK-OV-3 ovarian): 2.85 µM
GI50 (SF-295 CNS): 1.19 µM
TGI (SF-295 CNS): 2.56 µM
GI50 (SN12C renal): 288 nM
TGI (SN12C renal): 0.767 µM
GI50 (SK-MEL-2 melanoma): 234 nM
TGI (SK-MEL-2 melanoma): 27.8 µM
GI50 (NCI-H23 lung): 263 nM
TGI (NCI-H23 lung): 1.16 µM
GI50 (NCI-H522 lung): 1960 nM
TGI (NCI-H522 lung): 6.22 µM
GI50 (SNB-19 CNS): 1.34 µM
TGI (SNB-19 CNS): 3.08 µM
GI50 (786-0 renal): 444 nM
TGI (786-0 renal): 0.97 µM

Cc1ccc(NC(=O)/C(Cc2cc(=O)oc3cc(O)ccc23)=N\NC(C)(C)C)cc1C
TGI (KM12 colon): > 100 µM
TGI (SK-OV-3 ovarian): > 100 µM
TGI (SF-295 CNS): > 100 µM
TGI (SN12C renal): > 100 µM
TGI (SK-MEL-2 melanoma): > 100 µM
TGI (HCT-116 colon): > 100 µM
TGI (NCI-H23 lung): > 100 µM
TGI (SNB-19 CNS): > 100 µM
TGI (786-0 renal): > 100 µM

COC(=O)C(=O)C(C(=O)C(=O)Nc1ccccc1OC)c1nc2ccc([N+](=O)[O-])cc2[nH]c1=O (stereo not drawn)
TGI (KM12 colon): > 100 µM
TGI (SK-OV-3 ovarian): > 100 µM
TGI (SF-295 CNS): > 100 µM
TGI (SN12C renal): > 100 µM
TGI (SK-MEL-2 melanoma): > 100 µM
TGI (HCT-116 colon): > 100 µM
TGI (NCI-H522 lung): > 100 µM
TGI (SNB-19 CNS): > 100 µM
TGI (786-0 renal): > 100 µM
